1 compound from publication PMC9309644, “Functional analysis of thermo-sensitive TRPV1 in an aquatic vertebrate, masu salmon (Oncorhynchus masou ishikawae)” (Biochemistry and Biophysics Reports, 2022) can be followed below.

The target in this experiment is T1, OmTRPV1 (Oncorhynchus masou, UniProt Z9PIN9CDR2).
T1 construct: cDNA cloned from spinal cord into pOX(+) via EcoRI/NotI; forward primer starts at ATG, reverse primer with stop codon; cRNA-injected Xenopus laevis oocytes; S487 and V525 correspond to mammalian S512 and T550
T1 sequence (Z9PIN9CDR2 1-804): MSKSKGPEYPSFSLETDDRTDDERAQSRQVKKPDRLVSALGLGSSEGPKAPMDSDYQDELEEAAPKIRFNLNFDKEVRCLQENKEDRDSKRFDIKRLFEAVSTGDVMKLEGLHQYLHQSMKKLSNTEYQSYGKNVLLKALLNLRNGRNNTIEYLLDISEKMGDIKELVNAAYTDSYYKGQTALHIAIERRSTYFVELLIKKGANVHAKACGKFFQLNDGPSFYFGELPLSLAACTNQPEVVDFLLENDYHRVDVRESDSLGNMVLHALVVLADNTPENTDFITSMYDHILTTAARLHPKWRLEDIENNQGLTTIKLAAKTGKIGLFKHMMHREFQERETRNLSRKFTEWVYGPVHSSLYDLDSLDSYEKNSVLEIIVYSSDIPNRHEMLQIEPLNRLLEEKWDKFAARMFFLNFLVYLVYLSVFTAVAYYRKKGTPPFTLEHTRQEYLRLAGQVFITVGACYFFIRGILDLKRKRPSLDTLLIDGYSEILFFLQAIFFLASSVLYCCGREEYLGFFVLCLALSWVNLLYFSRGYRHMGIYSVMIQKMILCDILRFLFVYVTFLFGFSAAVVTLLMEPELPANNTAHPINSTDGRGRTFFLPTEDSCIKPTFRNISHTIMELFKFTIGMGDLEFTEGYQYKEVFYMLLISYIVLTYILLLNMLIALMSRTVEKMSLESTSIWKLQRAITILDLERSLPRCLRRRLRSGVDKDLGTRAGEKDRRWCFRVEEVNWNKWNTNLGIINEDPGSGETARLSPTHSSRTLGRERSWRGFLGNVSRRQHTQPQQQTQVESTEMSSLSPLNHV
The experiment can be described thus: two-electrode voltage-clamp, Xenopus laevis oocytes. It counts as cell-based. (In two-electrode clamp one electrode senses voltage and the other passes current.)

On to `COc1cc(CNC(=O)CCCC/C=C/C(C)C)ccc1O` [capsaicin], for which a half-maximal effect (EC50) was put at 10.4 µM.
